Test results: patent US12202818B2, “Compounds and methods for CD73 modulation and indications therefor” (Opna Bio SA, priority 2020, dated 2025)

Tests used:
[1] = target: T1, Human CD73 (amino acid residues 27-549) (Homo sapiens, UniProt P21589); assay: CD73 enzymatic assay (luciferase-based indirect assay, CellTiter-Glo); type: biochemical; conditions: 0.4 nM CD73, 150 μM AMP, 1 hour at room temperature
T1 construct: Human CD73 (amino acid residues 27-549); His tag (N); made in house; host or cells: E. coli
T1 sequence (P21589 27-549): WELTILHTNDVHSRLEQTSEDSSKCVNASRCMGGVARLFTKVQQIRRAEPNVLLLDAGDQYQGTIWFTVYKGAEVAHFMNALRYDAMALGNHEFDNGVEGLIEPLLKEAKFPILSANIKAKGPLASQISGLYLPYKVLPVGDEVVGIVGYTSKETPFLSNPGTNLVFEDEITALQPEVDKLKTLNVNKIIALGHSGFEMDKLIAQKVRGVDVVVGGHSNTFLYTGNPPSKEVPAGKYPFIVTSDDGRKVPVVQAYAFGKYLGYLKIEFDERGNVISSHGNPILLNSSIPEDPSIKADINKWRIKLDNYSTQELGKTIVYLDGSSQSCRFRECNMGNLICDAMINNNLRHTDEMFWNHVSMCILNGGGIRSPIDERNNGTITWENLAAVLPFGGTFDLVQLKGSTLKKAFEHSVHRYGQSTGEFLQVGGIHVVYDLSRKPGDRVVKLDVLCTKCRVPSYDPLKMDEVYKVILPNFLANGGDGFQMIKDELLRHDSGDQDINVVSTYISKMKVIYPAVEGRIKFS
Summary of the method: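 N-His human CD73 (27-549) expressed in E. coli, 0.4 nM, incubated with 150 μM AMP and compound in 50 mM HEPES pH 7.4, 0.01% Tween-20, 1 h at RT. Remaining AMP read via CellTiter-Glo luminescence with 1 μM ATP after 30 min; IC50 from nonlinear regression of % inhibition.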

human CD73 = target: T2, human CD73 (Homo sapiens, UniProt P21589); assay: Inhibitor activity against CD73 in cell based assay (CD73 expressing CHO-K1 cells); conditions: CHO-K1 cells expressing human CD73, 150 μM AMP, 4 hours of incubation; read-out: CHO-K1 CELL_VARIANT: CD73 IC50
T2 construct: expressed in transfected cells
T2 sequence (P21589 27-549): T1 sequence (P21589 27-549)
Summary of the method: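 Stable human CD73 CHO-K1 cells, 1×10^4/well, exposed to an 8-point 1:3 compound series (top 10 μM, 0.2% DMSO) plus 150 μM AMP for 4 h. Remaining AMP in the supernatant was read by CellTiter-Glo 2.0 luminescence with 1 μM ATP after 30 min at room temperature. IC50 came from nonlinear regression of % inhibition against cell and media-only controls.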

Row | IC50 [1] [µM] | IC50 (human CD73) [µM] | SMILES
1 | 0.001 to 10 | 0.001 to 10 | CC(C)(O)Cn1cc(-c2ccnc(O[C@@H]3CCN(c4cn[nH]c(=O)c4Cl)C3)c2)cn1 [P-0228, (R)-4-chloro-5-(3-((4-(1-(2-hydroxy-2-methylpropyl)-1H-pyrazol-4-yl)pyridin-2-yl)oxy)pyrrolidin-1-yl)pyridazin-3(2H)-one]
2 | 0.001 to 10 | 0.001 to 10 | O=c1[nH]ncc(N2CC[C@@H](Oc3cc(N4CCN(S(=O)(=O)NC5CC5)CC4)ccn3)C2)c1Cl [P-0229, (R)-4-(2-((1-(5-chloro-6-oxo-1,6-dihydropyridazin-4-yl)pyrrolidin-3-yl)oxy)pyridin-4-yl)-N-cyclopropylpiperazine-1-sulfonamide]
3 | 0.001 to 10 | 0.001 to 10 | O=c1[nH]ncc(N2CC[C@@H](Oc3cc(-c4ccc(S(=O)(=O)NC5CC5)cc4Cl)ccn3)C2)c1Cl [P-0230, (R)-3-chloro-4-(2-((1-(5-chloro-6-oxo-1,6-dihydropyridazin-4-yl)pyrrolidin-3-yl)oxy)pyridin-4-yl)-N-cyclopropylbenzenesulfonamide]
4 | 0.001 to 10 | 0.001 to 10 | O=c1[nH]ncc(N2CC[C@@H](Oc3cc(-c4ccc(C(F)(F)F)nc4)ccn3)C2)c1Cl [P-0231, (R)-4-chloro-5-(3-((6-(trifluoromethyl)-[3,4′-bipyridin]-2′-yl)oxy)pyrrolidin-1-yl)pyridazin-3(2H)-one]
5 | 0.001 to 10 | 0.001 to 10 | O=c1[nH]ncc(N2CC[C@@H](Oc3cc(-c4ccc(C(F)(F)F)cc4Cl)ccn3)C2)c1Cl [P-0232, (R)-4-chloro-5-(3-((4-(2-chloro-4-(trifluoromethyl)phenyl)pyridin-2-yl)oxy)pyrrolidin-1-yl)pyridazin-3(2H)-one]
6 | 0.001 to 10 | 0.001 to 10 | CCCNS(=O)(=O)c1ccc(-c2ccnc(O[C@@H]3CCN(c4cn[nH]c(=O)c4Cl)C3)c2)c(Cl)c1 [P-0233, (R)-3-chloro-4-(2-((1-(5-chloro-6-oxo-1,6-dihydropyridazin-4-yl)pyrrolidin-3-yl)oxy)pyridin-4-yl)-N-propylbenzenesulfonamide]
7 | 0.001 to 10 | 0.001 to 10 | O=c1[nH]ncc(N2CC[C@@H](Oc3cc(-c4ccc(S(=O)(=O)NC5CC5)cc4F)ccn3)C2)c1Cl [P-0234, (R)-4-(2-((1-(5-chloro-6-oxo-1,6-dihydropyridazin-4-yl)pyrrolidin-3-yl)oxy)pyridin-4-yl)-N-cyclopropyl-3-fluorobenzenesulfonamide]
8 | 0.001 to 10 | 0.001 to 10 | Cc1cc(S(=O)(=O)NC2CC2)ccc1-c1ccnc(O[C@@H]2CCN(c3cn[nH]c(=O)c3Cl)C2)c1 [P-0235, (R)-4-(2-((1-(5-chloro-6-oxo-1,6-dihydropyridazin-4-yl)pyrrolidin-3-yl)oxy)pyridin-4-yl)-N-cyclopropyl-3-methylbenzenesulfonamide]
9 | 0.001 to 10 | 0.001 to 10 | O=c1[nH]ncc(N2CC[C@@H](Oc3cc(-c4ccc(C(F)(F)F)cc4)ccn3)C2)c1Cl [P-0236, (R)-4-chloro-5-(3-((4-(4-(trifluoromethyl)phenyl)pyridin-2-yl)oxy)pyrrolidin-1-yl)pyridazin-3(2H)-one]
10 | 0.001 to 10 | 0.001 to 10 | O=c1[nH]ncc(N2CC[C@@H](Oc3cc(-c4ccc(OC(F)(F)F)cc4)ccn3)C2)c1Cl [P-0237, (R)-4-chloro-5-(3-((4-(4-(trifluoromethoxy)phenyl)pyridin-2-yl)oxy)pyrrolidin-1-yl)pyridazin-3(2H)-one]
11 | 0.001 to 10 | 0.001 to 10 | O=c1[nH]ncc(N2CC[C@@H](Oc3cc(-c4ccc(S(=O)(=O)NC5CC5)cc4)c(F)cn3)C2)c1Cl [P-0238, (R)-4-(2-((1-(5-chloro-6-oxo-1,6-dihydropyridazin-4-yl)pyrrolidin-3-yl)oxy)-5-fluoropyridin-4-yl)-N-cyclopropylbenzenesulfonamide]
12 | 0.001 to 10 | 0.001 to 10 | CCCS(=O)(=O)N1CCN(c2ccnc(O[C@@H]3CCN(c4cn[nH]c(=O)c4Cl)C3)c2)CC1 [P-0239, (R)-4-chloro-5-(3-((4-(4-(propylsulfonyl)piperazin-1-yl)pyridin-2-yl)oxy)pyrrolidin-1-yl)pyridazin-3(2H)-one]
13 | 0.001 to 10 | 0.001 to 10 | CCCNS(=O)(=O)c1ccc(-c2ccnc(O[C@@H]3CCN(c4cn[nH]c(=O)c4Cl)C3)c2)c(C)c1 [P-0240, (R)-4-(2-((1-(5-chloro-6-oxo-1,6-dihydropyridazin-4-yl)pyrrolidin-3-yl)oxy)pyridin-4-yl)-3-methyl-N-propylbenzenesulfonamide]
14 | 0.001 to 10 | 0.001 to 10 | O=c1[nH]ncc(N2CC[C@@H](Oc3cc(-c4ccc(S(=O)(=O)Nc5ccc(F)cc5)cc4)ccn3)C2)c1Cl [P-0241, (R)-4-(2-((1-(5-chloro-6-oxo-1,6-dihydropyridazin-4-yl)pyrrolidin-3-yl)oxy)pyridin-4-yl)-N-(4-fluorophenyl)benzenesulfon-amide]
15 | 0.001 to 10 | 0.001 to 10 | CCCCNS(=O)(=O)c1ccc(-c2ccnc(O[C@@H]3CCN(c4cn[nH]c(=O)c4Cl)C3)c2)cc1 [P-0242, (R)-N-butyl-4-(2-((1-(5-chloro-6-oxo-1,6-dihydropyridazin-4-yl)pyrrolidin-3-yl)oxy)pyridin-4-yl)benzenesulfonamide]
16 | 0.001 to 10 | 0.001 to 10 | CCNS(=O)(=O)c1ccc(-c2ccnc(O[C@@H]3CCN(c4cn[nH]c(=O)c4Cl)C3)c2)cc1 [P-0243, (R)-4-(2-((1-(5-chloro-6-oxo-1,6-dihydropyridazin-4-yl)pyrrolidin-3-yl)oxy)pyridin-4-yl)-N-ethylbenzenesulfonamide]
17 | 0.001 to 10 | 0.001 to 10 | CNS(=O)(=O)c1ccc(-c2ccnc(O[C@@H]3CCN(c4cn[nH]c(=O)c4Cl)C3)c2)cc1 [P-0244, (R)-4-(2-((1-(5-chloro-6-oxo-1,6-dihydropyridazin-4-yl)pyrrolidin-3-yl)oxy)pyridin-4-yl)-N-methylbenzenesulfonamide]
18 | 0.001 to 10 | 0.001 to 10 | O=c1[nH]ncc(N2CC[C@@H](Oc3cc(-c4ccc(NS(=O)(=O)C5CC5)cc4)ccn3)C2)c1Cl [P-0245, (R)-N-(4-(2-((1-(5-chloro-6-oxo-1,6-dihydropyridazin-4-yl)pyrrolidin-3-yl)oxy)pyridin-4-yl)phenyl)cyclopropanesulfon-amide]
19 | 0.001 to 10 | 0.001 to 10 | O=c1[nH]ncc(N2CC[C@@H](Oc3cc(-c4ccc(S(=O)(=O)N5CCCC5)cc4)ccn3)C2)c1Cl [P-0246, (R)-4-chloro-5-(3-((4-(4-(pyrrolidin-1-ylsulfonyl)phenyl)pyridin-2-yl)oxy)pyrrolidin-1-yl)pyridazin-3(2H)-one]
20 | 0.001 to 10 | 0.001 to 10 | O=c1[nH]ncc(N2CC[C@@H](Oc3cc(-c4ccc(S(=O)(=O)NC5CC5)cc4)ccn3)C2)c1Cl [P-0247, (R)-4-(2-((1-(5-chloro-6-oxo-1,6-dihydropyridazin-4-yl)pyrrolidin-3-yl)oxy)pyridin-4-yl)-N-cyclopropylbenzenesulfonamide]
21 | 0.001 to 10 | 0.001 to 10 | O=c1[nH]ncc(N2CC[C@@H](Oc3cc(-c4ccc(S(=O)(=O)N5CCCC5)cc4)c(Cl)cn3)C2)c1Cl [P-0248, (R)-4-chloro-5-(3-((5-chloro-4-(4-(pyrrolidin-1-ylsulfonyl)phenyl)pyridin-2-yl)oxy)pyrrolidin-1-yl)pyridazin-3(2H)-one]
22 | 0.001 to 10 | 0.001 to 10 | O=c1[nH]ncc(N2CC[C@@H](Oc3cc(-c4ccc(S(=O)(=O)N5CCCCC5)cc4)c(Cl)cn3)C2)c1Cl [P-0249, (R)-4-chloro-5-(3-((5-chloro-4-(4-(piperidin-1-ylsulfonyl)phenyl)pyridin-2-yl)oxy)pyrrolidin-1-yl)pyridazin-3(2H)-one]
23 | 0.001 to 10 | 0.001 to 10 | O=c1[nH]ncc(N2CC[C@@H](Oc3cc(-c4ccc(S(=O)(=O)NC5CC5)cc4)c(Cl)cn3)C2)c1Cl [P-0251, (R)-4-(5-chloro-2-((1-(5-chloro-6-oxo-1,6-dihydropyridazin-4-yl)pyrrolidin-3-yl)oxy)pyridin-4-yl)-N-cyclopropylbenzenesulfonamide]
24 | 0.001 to 10 | 0.001 to 10 | O=c1[nH]ncc(N2CC[C@@H](Oc3cc(-n4cccc4)ccn3)C2)c1Cl [P-0252, (R)-5-(3-((4-(1H-pyrrol-1-yl)pyridin-2-yl)oxy)pyrrolidin-1-yl)-4-chloropyridazin-3(2H)-one]
25 | 0.001 to 10 | 10 to 100 | N#Cc1cc(O[C@@H]2CCN(c3cn[nH]c(=O)c3Cl)C2)nc(N2CCCC2)c1 [P-0253, (R)-2-((1-(5-chloro-6-oxo-1,6-dihydropyridazin-4-yl)pyrrolidin-3-yl)oxy)-6-(pyrrolidin-1-yl)isonicotinonitrile]
